Where “and” joins values, the source holds several entries; their conditions need not be identical. Equal values may be shown once.
Legend:
[1] = system: dog model of chronic heart failure; settings: cited from earlier work
DOCA-salt and sham mice = assay: Invasive hemodynamic (pressure-volume catheter) assessment of diastolic dysfunction, acute ranolazine; assay type: in vivo, mouse; settings: for DBP, diastolic blood pressure / EDPVR, end diastolic pressure volume relationship (slope) / EF, ejection fraction (invasive) / ESPVR, end systolic pressure volume relationship / HR, heart rate / LVEDP, left ventricular end diastolic pressure / LVESP, left ventricular end systolic pressure / dP/dt max / dP/dt min: ranolazine 5 mg/kg i.v. then 4.8 mg/kg/h; for SBP, systolic blood pressure: ranolazine 5 mg/kg intravenous injection then infusion 4.8 mg/kg/h
Method: Generation of DOCA-salt mouse model: Previously, it was shown that this model leads to mild hypertension, myocardial oxidative stress, and diastolic dysfunction.^20 A gradual and mild elevation in blood pressure was induced by unilateral nephrectomy, subcutaneous implantation of a controlled release deoxycorticosterone acetate (DOCA) pellet (0.7 mg/d; Innovative Research of America, Sarasota, Fla.), and substituting drinking water with 1.05% saline. Control animals underwent a sham operation, had placebo pellet implantation, and received water without salt. Invasive assessment of diastolic dysfunction: Mice were anesthetized with 1-1.5% isoflurane and maintained at 37° C. The pressure-volume (PV) catheter was inserted into the right common carotid artery and advanced into the LV. […] Volume and parallel conductance calibration were performed as previously described.^20 Baseline hemodynamic measurements were obtained, and subsequently, the mice received an intravenous injection of ranolazine (5 mg/kg) followed by an infusion at 4.8 mg/kg/h, while additional hemodynamic measurements were recorded. Blood samples were obtained during the last five minutes of the procedure to determine the plasma ranolazine concentration. Previously, we have shown that this model leads to mild hypertension, myocardial oxidative stress, and diastolic dysfunction.^20 A gradual and mild elevation in blood pressure was induced by unilateral nephrectomy, subcutaneous implantation of a controlled release deoxycorticosterone acetate (DOCA) pellet (0.7 mg/d; Innovative Research of America, Sarasota, Fla.), and substituting drinking water with 1.05% saline. Control animals underwent a sham operation, had placebo pellet implantation, and received water without salt. Mice were anesthetized with 1-1.5% isoflurane and maintained at 37° C. The pressure-volume (PV) catheter was inserted into the right common carotid artery and advanced into the LV. […] Volume and parallel conductance calibration were performed as previously described.^20 Baseline hemodynamic measurements were obtained, and subsequently to determine the acute effect, the mice received an intravenous injection of ranolazine (5 mg/kg) followed by an infusion at 4.8 mg/kg/h, while additional hemodynamic measurements were recorded. Blood samples were obtained during the last five minutes of the procedure to determine the plasma ranolazine concentration.

[2] = system: isolated ventricular myocytes from DOCA-salt and sham mice; assay: Calcium transient measurements (Fura-2AM) in isolated cardiomyocytes; assay type: cell-based, mouse; settings: 10 μM ranolazine
Method: Cell shortening and calcium transient measurements: The mechanical properties of the cardiomyocytes were assessed using an IonOptix Myocam System (Ionoptix Inc., Milton, Mass.). Unloaded cardiomyocytes were placed on a glass slide and allowed to adhere for 10 min. Cardiomyocytes were then imaged with an inverted microscope and perfused with a Tyrode's buffer containing 1.2 mmol/L calcium at room temperature. Cardiomyocytes were paced at 0.5 Hz for 10 ms duration, and sarcomere shortening and relengthening were assessed using the following indices: peak fractional shortening (FS), time to 90% peak shortening, and τ, the relaxation time constant (a0+[…]^t/τ, t=time). […] For calcium transient measurements, cardiomyocytes were loaded with 1 μmol/L Fura 2-AM for 10 min at room temperature, and fluorescence measurements were recorded with a dual-excitation fluorescence photomultiplier system (IonOptix). […] The emitted fluorescence was detected at 510 nm. To take into account any inference from background fluorescence, the background fluorescence for each cardiomyocyte was determined by moving the cardiomyocyte out of the view and recording the fluorescence from the bath solution alone. The mechanical properties of the cardiomyocytes were assessed using an IonOptix Myocam System (Ionoptix Inc., Milton, Mass.). […] The emitted fluorescence was detected at 510 nm. […]

patients = settings: cited from earlier work

In the case of `COc1ccccc1OCC(O)CN1CCN(CC(=O)Nc2c(C)cccc2C)CC1` (stereo not shown) [ranolazine], the LVEDP [1] is given as “reduces LVEDP”, the “Pearson correlation coefficient of EDPVR with serum/plasma ranolazine levels” value (DOCA-salt and sham mice; DOCA-salt mice, n=6, p<0.05) is given as 0.70 and the “DBP, diastolic blood pressure” value (DOCA-salt and sham mice; DOCA-salt mice) is given as 73 ± 2 mmHg. For the same compound, the “EDPVR, end diastolic pressure volume relationship (slope)” value (DOCA-salt and sham mice; DOCA-salt mice) was 0.17±0.01 mmHg/μL, the “EF, ejection fraction (invasive)” value (DOCA-salt and sham mice; DOCA-salt mice) was 67 ± 4% and the “ESPVR, end systolic pressure volume relationship” value (DOCA-salt and sham mice; DOCA-salt mice) was 4.1 ± 0.2 mmHg/μL. For the same compound, the “HR, heart rate” value (DOCA-salt and sham mice; DOCA-salt mice) was 588 ± 16 bpm, the “LVEDP, left ventricular end diastolic pressure” value (DOCA-salt and sham mice; DOCA-salt mice) was 3.5±0.4 mmHg and 3.6 ± 0.4 mmHg and the “LVESP, left ventricular end systolic pressure” value (DOCA-salt and sham mice; DOCA-salt mice) was 98 ± 3 mmHg. The dP/dt max (DOCA-salt and sham mice; DOCA-salt mice) was 12,495 ± 555 mmHg/sec, the dP/dt min (DOCA-salt and sham mice; DOCA-salt mice) was −12,211 ± 792 mmHg/sec and the “SBP, systolic blood pressure” value (DOCA-salt and sham mice; DOCA-salt mice) was 102 ± 3 mmHg. For the same compound, the “DBP, diastolic blood pressure” value (DOCA-salt and sham mice; sham mice) was 58 ± 2 mmHg, the “EDPVR, end diastolic pressure volume relationship (slope)” value (DOCA-salt and sham mice; sham mice) was 0.18±0.01 mmHg/μL and the “EF, ejection fraction (invasive)” value (DOCA-salt and sham mice; sham mice) was 73 ± 5%. The “ESPVR, end systolic pressure volume relationship” value (DOCA-salt and sham mice; sham mice) was 3.9 ± 0.5 mmHg/μL, the “HR, heart rate” value (DOCA-salt and sham mice; sham mice) was 620 ± 5 bpm and the “LVEDP, left ventricular end diastolic pressure” value (DOCA-salt and sham mice; sham mice) was 4.2 ± 0.5 mmHg. For the same compound, the “LVESP, left ventricular end systolic pressure” value (DOCA-salt and sham mice; sham mice) was 84 ± 3 mmHg and 85 ± 3 mmHg, the dP/dt max (DOCA-salt and sham mice; sham mice) was 12,032 ± 787 mmHg/sec and the dP/dt min (DOCA-salt and sham mice; sham mice) was −10,083 ± 685 mmHg/sec. For the same compound, the “SBP, systolic blood pressure” value (DOCA-salt and sham mice; sham mice) was 93 ± 3 mmHg, the “Ca2+ transients” value [2] was “did not affect either group” and the proarrhythmic risk (patients; clinically relevant doses, MERLIN TIMI 36 investigators) was “no proarrhythmic risk”. For the same compound, the “relationship with the QTc interval” value (patients; human, in vivo) was “positive linear relationship”.
